Assay results published in publication PMC7997032, “Organic synthesis and anti-influenza A virus activity of cyclobakuchiols A, B, C, and D” (PLoS ONE, 2021).
“And” between values parts separate entries of the source, which are not always exact repeats. Equal entries are not always repeated.

System: MDCK cells
Assay: MTT assay (cytotoxicity against MDCK cells)
Type: cell-based, canine
Conditions: MDCK cells; for MTT, DMSO as 100 (DMSOを 100として), ave / MTT 72h AVE (DMSO = 100): 72h; for MTT, DMSO as 100 (DMSOを 100として), ave: mean of 5 wells (200409 #1 and #3); for MTT 72h AVE (DMSO = 100): summary AVE; for MTT 24h, AVE (DMSO as 100) / MTT 24h, 570-650nm, DMSO as 100, ave: mean of 5 wells from 3 experiments; for MTT 24h, AVE (DMSO as 100): relative to DMSO = 100; for MTT 24h, 570-650nm, DMSO as 100, single replicate: individual wells (200331; 200403 #2 1,2; 200403 #3 1,2); for 570-650nm (MTT absorbance, single wells) / 570-650nm ave (mean MTT absorbance of 5 wells) / MTT absorbance with DMSO as 100 (DMSOを 100として), single wells: MTT 72h; for 570-650nm (MTT absorbance, single wells): experiments #1-#3, duplicate wells; for MTT absorbance with DMSO as 100 (DMSOを 100として), single wells: relative to mean of DMSO
Procedure: 1–5 (0.8–100 μM) were prepared in DMSO (100 μM, 1%; 50 μM, 0.5%; 25 μM, 0.25%; 12.5 μM, 0.125%; 6.3 μM, 0.063%; 3.1 μM, 0.031%; 1.6 μM, 0.016%; 0.8 μM, 0.008%) and mixed with infection medium (DMEM supplemented with 1% bovine serum albumin (BSA; Wako), P/S and 4 mM L-glutamine). The resulting mixture was added to the cells and incubated for 24 or 72 h at 37°C in the presence of 5% CO2. After incubation, cell viability was determined using an MTT cell count kit (Nacalai Tesque) according to the manufacturer’s instructions, as previously described.

Structure (SMILES): C=C[C@]1(C)CC[C@@H](C(=C)C)[C@H](c2ccc(O)cc2)C1 [Cyclo. B]
- MTT, DMSO as 100 (DMSOを 100として), ave (0.78uM): 97.4368
- MTT, DMSO as 100 (DMSOを 100として), ave (1.56uM): 107.487
- MTT, DMSO as 100 (DMSOを 100として), ave (3.125uM): 135.205
- MTT 72h AVE (DMSO = 100) (6.25 (uM)): 152.012
- MTT 72h AVE (DMSO = 100) (12.5 (uM)): 128.856
- MTT 72h AVE (DMSO = 100) (25 (uM)): 133.275
- MTT 72h AVE (DMSO = 100) (50 (uM)): 92.332
- MTT 72h AVE (DMSO = 100) (100 (uM)): 27.1545
- MTT 24h, AVE (DMSO as 100) (0.78 uM): 105.371
- MTT 24h, AVE (DMSO as 100) (1.56 uM): 93.7053
- MTT 24h, 570-650nm, DMSO as 100, single replicate (3.125uM): 97.7259 and 87.8578 and 108.85 and 106.215 and 84.4914
- MTT 24h, 570-650nm, DMSO as 100, ave (3.125uM): 97.028
- MTT 24h, 570-650nm, DMSO as 100, single replicate (6.25uM): 100.056 and 92.1514 and 106.191 and 111.594 and 90.247
- MTT 24h, 570-650nm, DMSO as 100, ave (6.25uM): 100.048
- MTT 24h, 570-650nm, DMSO as 100, single replicate (12.5uM): 100.027 and 92.2079 and 111.97 and 107.481 and 100.019
- MTT 24h, 570-650nm, DMSO as 100, ave (12.5uM): 102.341
- MTT 24h, 570-650nm, DMSO as 100, single replicate (25uM): 93.3176 and 99.811 and 119.964 and 115.104 and 108.65
- MTT 24h, 570-650nm, DMSO as 100, ave (25uM): 107.369
- MTT 24h, 570-650nm, DMSO as 100, single replicate (50uM): 101.366 and 118.852 and 85.3652 and 130.523 and 116.385
- MTT 24h, 570-650nm, DMSO as 100, ave (50uM): 110.498
- MTT 24h, 570-650nm, DMSO as 100, single replicate (100uM): 120.469 and 116.882 and 135.616 and 105.182 and 78.3439
- MTT 24h, 570-650nm, DMSO as 100, ave (100uM): 111.299
- 570-650nm (MTT absorbance, single wells) (0.78uM): 1.0803 and 0.7822 and 0.6986 and 0.7618 and 0.6844 and 0.8059
- 570-650nm (MTT absorbance, single wells) (1.56uM): 0.9938 and 0.9382 and 0.7725 and 0.5035 and 0.9217 and 0.7676
- 570-650nm (MTT absorbance, single wells) (3.13uM (3.125uM in summary block)): 0.8489 and 0.8759 and 0.9309 and 0.9208 and 0.9982 and 0.8279
- 570-650nm ave (mean MTT absorbance of 5 wells) (6.25uM): 1.04
- 570-650nm (MTT absorbance, single wells) (6.25uM): 0.8643 and 1.0571 and 1.004 and 1.1478 and 1.1256 and 0.8768
- MTT absorbance with DMSO as 100 (DMSOを 100として), single wells (6.25uM): 154.547 and 146.784 and 167.807 and 164.561 and 126.36
- 570-650nm ave (mean MTT absorbance of 5 wells) (12.5uM): 1.026
- 570-650nm (MTT absorbance, single wells) (12.5uM): 1.0196 and 0.9592 and 1.0242 and 0.9589 and 1.0117 and 1.1742
- MTT absorbance with DMSO as 100 (DMSOを 100として), single wells (12.5uM): 120.471 and 128.675 and 147.52 and 127.104 and 120.509
- 570-650nm ave (mean MTT absorbance of 5 wells) (25uM): 1.002
- 570-650nm ave (mean MTT absorbance of 5 wells) (50uM): 0.8426
- 570-650nm ave (mean MTT absorbance of 5 wells) (100uM): 0.2557
- 570-650nm (MTT absorbance, single wells) (100uM): 0.2419 and 0.2859 and 0.234 and 0.2603 and 0.2251 and 0.273
- MTT absorbance with DMSO as 100 (DMSOを 100として), single wells (100uM): 27.6474 and 24.854 and 28.9963 and 23.9087 and 30.3664
